We go through eight molecules from US20250353891A1 (MEDIMMUNE LIMITED, priority 2022, published 2025).

Starred links: 1 amine or outer side, 2 acyl side, 3 side chain; linkers in the order of their positions; H or OH if unused. Non-standard residues stand in square brackets, D forms with d. Residues, ends and D or L forms follow the SMILES beside them. Groups on a side chain read outwards from the residue. *: point of attachment. C20 diacid = O=C(O)CCCCCCCCCCCCCCCCCCC(=O)*; C18 diacid = O=C(O)CCCCCCCCCCCCCCCCC(=O)*; γGlu = O=C(O)[C@H](CCC(=O)[*:2])N[*:1]; αMeF = C[C@](N)(Cc1ccccc1)C(=O)O; PEG4 = NCCOCCOCCOCCOCCC(=O)O; AEEA = NCCOCCOCC(=O)O; Aib = CC(C)(N)C(=O)O

As a reminder, the EC50 is the concentration giving half of the maximal effect.

Assay [1] concerns the target human GLP-1 receptor (hGLP-1R) (Homo sapiens, UniProt P43220). Description: cAMP production (HTRF) in CHO cells expressing hGLP-1R. The class given is cell-based. Details: expressed in transfected cells. The note with it: for EC50: Table 7, peptides modified at position 20, cAMP in CHO hGLP-1R cells, geometric mean, read-out: hGLP-1R EC50; for % Relative Potency Ratio: Table 7, % GLP-1R activity relative to GLP-1 / % GlucR activity relative to glucagon. In a few lines: (§1)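 Cells were resuspended in assay buffer at batch-optimized density, typically 1×10^5 cells/mL for hGLP-1R and 2×10^5 cells/mL for hGCGR. After 30 min incubation at room temperature with compound, cAMP was measured by two-step HTRF. EC50 values came from 4-parameter logistic fits of % Delta F.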
(In general: cAMP levels reflect the balance of adenylyl cyclase and phosphodiesterase activity.)

Assay [2] deals with human glucagon receptor (hGCGR) (Homo sapiens, UniProt P47871). Description: cAMP production (HTRF) in CHO cells expressing hGCGR. The class given is cell-based. Details: expressed in transfected cells. To be noted: Table 7, peptides modified at position 20; cAMP in CHO hGCGR cells; geometric mean; read-out: hGluc-R EC50. The gist of the method: as §1
human glucagon receptor (hGCGR), sequence (P47871 26-477): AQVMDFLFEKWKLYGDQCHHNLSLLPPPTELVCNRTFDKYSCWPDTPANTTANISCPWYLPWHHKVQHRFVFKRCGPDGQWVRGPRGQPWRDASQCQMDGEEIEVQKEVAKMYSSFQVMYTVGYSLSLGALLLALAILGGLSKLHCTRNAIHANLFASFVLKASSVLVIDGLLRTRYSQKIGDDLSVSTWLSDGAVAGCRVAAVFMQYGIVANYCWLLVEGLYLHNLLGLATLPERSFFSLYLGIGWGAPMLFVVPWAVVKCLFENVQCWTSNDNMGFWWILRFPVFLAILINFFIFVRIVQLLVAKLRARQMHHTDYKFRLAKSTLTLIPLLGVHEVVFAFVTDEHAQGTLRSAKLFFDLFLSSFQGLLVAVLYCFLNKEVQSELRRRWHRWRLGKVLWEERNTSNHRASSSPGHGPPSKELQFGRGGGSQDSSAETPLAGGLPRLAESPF

human GLP-1 receptor (hGLP-1R), sequence (P43220 24-463): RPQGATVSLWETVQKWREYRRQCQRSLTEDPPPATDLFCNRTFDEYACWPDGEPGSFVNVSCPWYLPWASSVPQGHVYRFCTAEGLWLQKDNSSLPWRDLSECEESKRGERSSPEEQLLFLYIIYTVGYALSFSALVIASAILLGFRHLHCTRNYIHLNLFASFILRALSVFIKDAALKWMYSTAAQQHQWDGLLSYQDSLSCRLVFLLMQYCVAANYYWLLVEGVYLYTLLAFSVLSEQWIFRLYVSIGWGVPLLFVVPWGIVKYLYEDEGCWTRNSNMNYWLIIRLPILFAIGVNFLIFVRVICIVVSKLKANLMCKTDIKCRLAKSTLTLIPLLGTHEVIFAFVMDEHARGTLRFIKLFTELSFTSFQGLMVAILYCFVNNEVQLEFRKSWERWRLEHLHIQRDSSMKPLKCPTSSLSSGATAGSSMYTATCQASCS

For `CC[C@H](C)[C@H](NC(=O)C(C)(C)NC(=O)[C@H](CCC(N)=O)NC(=O)[C@@H](NC(=O)[C@](C)(Cc1ccccc1)NC(=O)[C@H](CC(=O)O)NC(=O)[C@H](CCCCNC(=O)CCOCCOCCOCCOCCNC(=O)CC[C@H](NC(=O)CC[C@H](NC(=O)CCCCCCCCCCCCCCCCCCC(=O)O)C(=O)O)C(=O)O)NC(=O)[C@H](C)NC(=O)[C@H](C)NC(=O)[C@H](CCCNC(=N)N)NC(=O)[C@H](CO)NC(=O)[C@H](CC(=O)O)NC(=O)[C@H](CC(C)C)NC(=O)[C@](C)(Cc1ccccc1)NC(=O)[C@H](CCCCN)NC(=O)[C@H](CO)NC(=O)[C@@H](NC(=O)[C@H](CC(=O)O)NC(=O)[C@H](CO)NC(=O)[C@@H](NC(=O)[C@](C)(Cc1ccccc1)NC(=O)[C@H](CO)NC(=O)CNC(=O)[C@H](Cc1c[nH]cn1)NC(=O)C(C)(C)NC(=O)[C@@H](N)Cc1c[nH]cn1)[C@@H](C)O)C(C)C)C(C)C)C(=O)N[C@@H](C)C(=O)N[C@@H](CC(N)=O)C(=O)N[C@H](C(N)=O)[C@@H](C)O` [Peptide 269] (H-H[Aib]HGS[αMeF]TSDVSK[αMeF]LDSRAAK([PEG4-γGlu-γGlu-C20 diacid])D[αMeF]VQ[Aib]IANT-NH2; N-terminus assumed), the EC50 in assay [1] was determined as 0.052 nM; in assay [2] it was 0.271 nM. The “% Relative Potency Ratio” value in assay [1] is 10.3.

Regarding `CC[C@H](C)[C@H](NC(=O)C(C)(C)NC(=O)[C@H](CCC(N)=O)NC(=O)[C@@H](NC(=O)[C@](C)(Cc1ccccc1)NC(=O)[C@H](CC(=O)O)NC(=O)[C@H](CCCCNC(=O)CC[C@H](NC(=O)CC[C@H](NC(=O)CCCCCCCCCCCCCCCCC(=O)O)C(=O)O)C(=O)O)NC(=O)[C@H](C)NC(=O)[C@H](C)NC(=O)[C@H](CCCNC(=N)N)NC(=O)[C@H](CO)NC(=O)[C@H](CC(=O)O)NC(=O)[C@H](CC(C)C)NC(=O)[C@](C)(Cc1ccccc1)NC(=O)[C@H](CCCCN)NC(=O)[C@H](CO)NC(=O)[C@@H](NC(=O)[C@H](CC(=O)O)NC(=O)[C@H](CO)NC(=O)[C@@H](NC(=O)[C@](C)(Cc1ccccc1)NC(=O)[C@H](CO)NC(=O)CNC(=O)[C@H](Cc1c[nH]cn1)NC(=O)C(C)(C)NC(=O)[C@@H](N)Cc1c[nH]cn1)[C@@H](C)O)C(C)C)C(C)C)C(=O)N[C@@H](C)C(=O)N[C@@H](CC(N)=O)C(=O)N[C@H](C(N)=O)[C@@H](C)O` [Peptide 270] (H-H[Aib]HGS[αMeF]TSDVSK[αMeF]LDSRAAK([γGlu-γGlu-C18 diacid])D[αMeF]VQ[Aib]IANT-NH2), in assay [1], the EC50 amounted to 0.0244 nM and the “% Relative Potency Ratio” value was determined as 2.5. The EC50 in assay [2] stood at 0.0313 nM.

For the molecule `CC[C@H](C)[C@H](NC(=O)C(C)(C)NC(=O)[C@H](CCC(N)=O)NC(=O)[C@@H](NC(=O)[C@](C)(Cc1ccccc1)NC(=O)[C@H](CC(=O)O)NC(=O)[C@H](CCCCNC(=O)CC[C@H](NC(=O)CCCCCCCCCCCCCCCCC(=O)O)C(=O)O)NC(=O)[C@H](C)NC(=O)[C@H](C)NC(=O)[C@H](CCCNC(=N)N)NC(=O)[C@H](CO)NC(=O)[C@H](CC(=O)O)NC(=O)[C@H](CC(C)C)NC(=O)[C@](C)(Cc1ccccc1)NC(=O)[C@H](CCCCN)NC(=O)[C@H](CO)NC(=O)[C@@H](NC(=O)[C@H](CC(=O)O)NC(=O)[C@H](CO)NC(=O)[C@@H](NC(=O)[C@](C)(Cc1ccccc1)NC(=O)[C@H](CO)NC(=O)CNC(=O)[C@H](Cc1c[nH]cn1)NC(=O)C(C)(C)NC(=O)[C@@H](N)Cc1c[nH]cn1)[C@@H](C)O)C(C)C)C(C)C)C(=O)N[C@@H](C)C(=O)N[C@@H](CC(N)=O)C(=O)N[C@H](C(N)=O)[C@@H](C)O` [Peptide 271] (H-H[Aib]HGS[αMeF]TSDVSK[αMeF]LDSRAAK([γGlu-C18 diacid])D[αMeF]VQ[Aib]IANT-NH2; N-terminus assumed), in assay [1], the EC50 amounted to 0.0546 nM and the “% Relative Potency Ratio” value worked out at 1.0. Further, the EC50 in assay [2] was determined as 0.028 nM.

In the case of `CC[C@H](C)[C@H](NC(=O)C(C)(C)NC(=O)[C@H](CCC(N)=O)NC(=O)[C@@H](NC(=O)[C@](C)(Cc1ccccc1)NC(=O)[C@H](CC(=O)O)NC(=O)[C@H](CCCCNC(=O)COCCOCCNC(=O)COCCOCCNC(=O)CCCCCCCCCCCCCCCCC(=O)O)NC(=O)[C@H](C)NC(=O)[C@H](C)NC(=O)[C@H](CCCNC(=N)N)NC(=O)[C@H](CO)NC(=O)[C@H](CC(=O)O)NC(=O)[C@H](CC(C)C)NC(=O)[C@](C)(Cc1ccccc1)NC(=O)[C@H](CCCCN)NC(=O)[C@H](CO)NC(=O)[C@@H](NC(=O)[C@H](CC(=O)O)NC(=O)[C@H](CO)NC(=O)[C@@H](NC(=O)[C@](C)(Cc1ccccc1)NC(=O)[C@H](CO)NC(=O)CNC(=O)[C@H](Cc1c[nH]cn1)NC(=O)C(C)(C)NC(=O)[C@@H](N)Cc1c[nH]cn1)[C@@H](C)O)C(C)C)C(C)C)C(=O)N[C@@H](C)C(=O)N[C@@H](CC(N)=O)C(=O)N[C@H](C(N)=O)[C@@H](C)O` [Peptide 272] (H-H[Aib]HGS[αMeF]TSDVSK[αMeF]LDSRAAK([AEEA-AEEA-C18 diacid])D[αMeF]VQ[Aib]IANT-NH2), in assay [1], the half-maximal effective concentration (EC50) amounted to 0.0157 nM and the “% Relative Potency Ratio” value is on record as 1.8. The concentration for a half-maximal effect (EC50) in assay [2] is 0.0143 nM.

As to `CC[C@H](C)[C@H](NC(=O)C(C)(C)NC(=O)[C@H](CCC(N)=O)NC(=O)[C@@H](NC(=O)[C@](C)(Cc1ccccc1)NC(=O)[C@H](CC(=O)O)NC(=O)[C@H](CCCCNC(=O)COCCOCCNC(=O)CCCCCCCCCCCCCCCCC(=O)O)NC(=O)[C@H](C)NC(=O)[C@H](C)NC(=O)[C@H](CCCNC(=N)N)NC(=O)[C@H](CO)NC(=O)[C@H](CC(=O)O)NC(=O)[C@H](CC(C)C)NC(=O)[C@](C)(Cc1ccccc1)NC(=O)[C@H](CCCCN)NC(=O)[C@H](CO)NC(=O)[C@@H](NC(=O)[C@H](CC(=O)O)NC(=O)[C@H](CO)NC(=O)[C@@H](NC(=O)[C@](C)(Cc1ccccc1)NC(=O)[C@H](CO)NC(=O)CNC(=O)[C@H](Cc1c[nH]cn1)NC(=O)C(C)(C)NC(=O)[C@@H](N)Cc1c[nH]cn1)[C@@H](C)O)C(C)C)C(C)C)C(=O)N[C@@H](C)C(=O)N[C@@H](CC(N)=O)C(=O)N[C@H](C(N)=O)[C@@H](C)O` [Peptide 273] (H-H[Aib]HGS[αMeF]TSDVSK[αMeF]LDSRAAK([AEEA-C18 diacid])D[αMeF]VQ[Aib]IANT-NH2), in assay [1], the EC50 was 0.0221 nM and the “% Relative Potency Ratio” value is 2.1. In addition, the EC50 in assay [2] worked out at 0.0233 nM.

For the molecule `CC[C@H](C)[C@H](NC(=O)C(C)(C)NC(=O)[C@H](CCC(N)=O)NC(=O)[C@@H](NC(=O)[C@](C)(Cc1ccccc1)NC(=O)[C@H](CC(=O)O)NC(=O)[C@H](CCCCNC(=O)COCCOCCNC(=O)CC[C@H](NC(=O)CC[C@H](NC(=O)CCCCCCCCCCCCCCCCC(=O)O)C(=O)O)C(=O)O)NC(=O)[C@H](C)NC(=O)[C@H](C)NC(=O)[C@H](CCCNC(=N)N)NC(=O)[C@H](CO)NC(=O)[C@H](CC(=O)O)NC(=O)[C@H](CC(C)C)NC(=O)[C@](C)(Cc1ccccc1)NC(=O)[C@H](CCCCN)NC(=O)[C@H](CO)NC(=O)[C@@H](NC(=O)[C@H](CC(=O)O)NC(=O)[C@H](CO)NC(=O)[C@@H](NC(=O)[C@](C)(Cc1ccccc1)NC(=O)[C@H](CO)NC(=O)CNC(=O)[C@H](Cc1c[nH]cn1)NC(=O)C(C)(C)NC(=O)[C@@H](N)Cc1c[nH]cn1)[C@@H](C)O)C(C)C)C(C)C)C(=O)N[C@@H](C)C(=O)N[C@@H](CC(N)=O)C(=O)N[C@H](C(N)=O)[C@@H](C)O` [Peptide 274] (H-H[Aib]HGS[αMeF]TSDVSK[αMeF]LDSRAAK([AEEA-γGlu-γGlu-C18 diacid])D[αMeF]VQ[Aib]IANT-NH2), in assay [1], the EC50 was determined as 0.0271 nM and the “% Relative Potency Ratio” value amounted to 2.3. The EC50 in assay [2] worked out at 0.0313 nM.

For the molecule `CC[C@H](C)[C@H](NC(=O)C(C)(C)NC(=O)[C@H](CCC(N)=O)NC(=O)[C@@H](NC(=O)[C@](C)(Cc1ccccc1)NC(=O)[C@H](CC(=O)O)NC(=O)[C@H](CCCCNC(=O)CC[C@H](NC(=O)CC[C@H](NC(=O)CCCCCCCCCCCCCCCCCCC(=O)O)C(=O)O)C(=O)O)NC(=O)[C@H](C)NC(=O)[C@H](C)NC(=O)[C@H](CCCNC(=N)N)NC(=O)[C@H](CO)NC(=O)[C@H](CC(=O)O)NC(=O)[C@H](CC(C)C)NC(=O)[C@](C)(Cc1ccccc1)NC(=O)[C@H](CCCCN)NC(=O)[C@H](CO)NC(=O)[C@@H](NC(=O)[C@H](CC(=O)O)NC(=O)[C@H](CO)NC(=O)[C@@H](NC(=O)[C@](C)(Cc1ccccc1)NC(=O)[C@H](CO)NC(=O)CNC(=O)[C@H](Cc1c[nH]cn1)NC(=O)C(C)(C)NC(=O)[C@@H](N)Cc1c[nH]cn1)[C@@H](C)O)C(C)C)C(C)C)C(=O)N[C@@H](C)C(=O)N[C@@H](CC(N)=O)C(=O)N[C@H](C(N)=O)[C@@H](C)O` [Peptide 275] (H-H[Aib]HGS[αMeF]TSDVSK[αMeF]LDSRAAK([γGlu-γGlu-C20 diacid])D[αMeF]VQ[Aib]IANT-NH2), in assay [1], the concentration giving a half-maximal response (EC50) is 0.111 nM and the “% Relative Potency Ratio” value stood at 3.1. For the same molecule, the EC50 in assay [2] was 0.175 nM.

With `CC[C@H](C)[C@H](NC(=O)C(C)(C)NC(=O)[C@H](CCC(N)=O)NC(=O)[C@@H](NC(=O)[C@](C)(Cc1ccccc1)NC(=O)[C@H](CC(=O)O)NC(=O)[C@H](CCCCNC(=O)CC[C@H](NC(=O)CCCCCCCCCCCCCCCCCCC(=O)O)C(=O)O)NC(=O)[C@H](C)NC(=O)[C@H](C)NC(=O)[C@H](CCCNC(=N)N)NC(=O)[C@H](CO)NC(=O)[C@H](CC(=O)O)NC(=O)[C@H](CC(C)C)NC(=O)[C@](C)(Cc1ccccc1)NC(=O)[C@H](CCCCN)NC(=O)[C@H](CO)NC(=O)[C@@H](NC(=O)[C@H](CC(=O)O)NC(=O)[C@H](CO)NC(=O)[C@@H](NC(=O)[C@](C)(Cc1ccccc1)NC(=O)[C@H](CO)NC(=O)CNC(=O)[C@H](Cc1c[nH]cn1)NC(=O)C(C)(C)NC(=O)[C@@H](N)Cc1c[nH]cn1)[C@@H](C)O)C(C)C)C(C)C)C(=O)N[C@@H](C)C(=O)N[C@@H](CC(N)=O)C(=O)N[C@H](C(N)=O)[C@@H](C)O` [Peptide 276] (H-H[Aib]HGS[αMeF]TSDVSK[αMeF]LDSRAAK([γGlu-C20 diacid])D[αMeF]VQ[Aib]IANT-NH2), the EC50 was found to be 0.143 nM in assay [1] and 0.0914 nM in assay [2]. In addition, in assay [1], the “% Relative Potency Ratio” value amounted to 1.3.
